# Measured values reported in BindingDB's records for doi:10.1111/cbdd.12843 (Key Laboratory for Neurodegenerative Diseases of Ministry …, 2017).
# Molecular target: D(2) dopamine receptor (Homo sapiens, UniProt P14416)
# Test: Dopamine D2 Receptor Activity Assay
# Settings: 37 °C
# Method: D2 receptor/G protein α16a co-transfected HEK293 cells (from the Shanghai Institute of Materia Medica, Chinese Academy of Sciences) were seeded in 96-wellplates and incubated overnight at 37 °C. The media were then removed, and 40 μL of 10 μM Fluo-4/AM (a calcium fluorescent probe) (Invitrogen Corporation, Carlsbad, CA, USA) was added. The plates were then incubated for 40 min at 37 °C. After the supernatant was discarded and the cells were washed with calcium buffer, 50 μL of calcium buffer containing tested compounds at the dosage range from 0.01 nM to 10 μM was added, and the plates were incubated for 10 min. The fluorescence values at an emission wavelength of 525 nm and an excitation wavelength of 485 nm were detected by the FlexStation II microplate reader (Molecular Devices, San Francisco, CA, USA), starting 15 s after 25 μL of calcium buffer containing 50 nM dopamine (an agonist of the dopamine D2 receptor) (Sigma-Aldrich, Saint Louis, MO,USA) was automatically added by the instrument.
# Sequence of D(2) dopamine receptor (P14416 whole entry): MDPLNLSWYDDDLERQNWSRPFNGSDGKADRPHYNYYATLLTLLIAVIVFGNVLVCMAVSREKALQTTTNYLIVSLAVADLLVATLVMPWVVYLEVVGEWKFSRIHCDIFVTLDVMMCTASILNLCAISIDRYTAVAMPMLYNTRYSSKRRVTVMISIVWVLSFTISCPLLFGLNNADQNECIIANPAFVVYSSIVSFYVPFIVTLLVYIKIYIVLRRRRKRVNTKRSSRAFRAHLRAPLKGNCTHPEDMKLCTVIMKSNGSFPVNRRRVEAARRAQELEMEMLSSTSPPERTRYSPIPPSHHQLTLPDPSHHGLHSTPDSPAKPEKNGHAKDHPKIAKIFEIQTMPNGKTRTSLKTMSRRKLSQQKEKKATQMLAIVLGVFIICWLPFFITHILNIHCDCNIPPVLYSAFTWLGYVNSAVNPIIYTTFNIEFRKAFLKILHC
row,Compound,IC50
1,O=C1C[C@@H](c2ccc(F)cc2)Oc2cc(OCCCCN3CCC(c4noc5cc(F)ccc45)CC3)cc(O)c21 [5-Hydroxy-2-(4-fluorophenyl)-7-(4-(4-(6-fluorobenzo[d]isoxazol-3-yl)piperidin-1-yl)butoxy)chroman-4-one (7e)],87.7 nM
2,COc1ccc([C@@H]2CC(=O)c3c(O)cc(OCCCCN4CCN(c5ccccc5OC)CC4)cc3O2)cc1 [5-Hydroxy-2-(4-methoxyphenyl)-7-(4-(4-(2-methoxyphenyl)piperazin-1-yl)butoxy)chroman-4-one (7a)],205 nM
3,COc1ccc([C@@H]2CC(=O)c3c(O)cc(OCCCN4CCN(c5ccccc5OC)CC4)cc3O2)cc1 [5-Hydroxy-2-(4-methoxyphenyl)-7-(4-(4-(2-methoxyphenyl)piperazin-1-yl)propoxy)chroman-4-one (7f)],220 nM
4,COc1ccc([C@@H]2CC(=O)c3c(O)cc(OCCCCN4CCC(c5noc6cc(F)ccc56)CC4)cc3O2)cc1 [5-Hydroxy-2-(4-methoxyphenyl)-7-(4-(4-(6-fluorobenzo[d]isoxazol-3-yl)piperidin-1-yl)butoxy)chroman-4-one (7d)],51.3 nM
5,COc1ccc([C@@H]2CC(=O)c3c(O)cc(OCCCN4CCC(c5noc6cc(F)ccc56)CC4)cc3O2)cc1 [5-Hydroxy-2-(4-methoxyphenyl)-7-(4-(4-(6-fluorobenzo[d]isoxazol-3-yl)piperidin-1-yl)propoxy)chroman-4-one (7g)],116 nM
6,COc1ccccc1N1CCN(CCCCOc2cc(O)c3c(c2)O[C@H](c2ccc(C)cc2)CC3=O)CC1 [5-Hydroxy-2-(4-methylphenyl)-7-(4-(4-(2-methoxyphenyl)piperazin-1-yl)butoxy)chroman-4-one (7b)],346 nM
7,COc1ccccc1N1CCN(CCCCOc2cc(O)c3c(c2)O[C@H](c2ccc(F)cc2)CC3=O)CC1 [5-Hydroxy-2-(fluorophenyl)-7-(4-(4-(2-methoxyphenyl)piperazin-1-yl)butoxy)chroman-4-one (7c)],57.3 nM
